Entries after “also recorded” stand apart in the source; their conditions may differ. Where no end group is shown, it is not given here. [ ]: non-standard residue; d: D form.
Legend:
HUVECs [1] = assay: In vitro proliferation assay with HUVECs; type: cell-based, human
Procedure: (§1) Endothelial cells from human umbilical veins (HUVEC) were isolated as described before^8. 10^4 cells were seeded on six well plastic dishes in serum free medium. Different concentrations of LL-37 were added to the culture medium. VEGF (5 ng/ml, 165 amino acid variant, Sigma Chemicals, Munich, Germany) was used as positive control. After 72 h the cells were detached from the support and counted. Experiments were repeated ten times using synthetic LL-37/hCAP-18 (37 C-terminal amino acids) and the hexapeptide WKYMVm, wherein “m” denotes the D-form of the amino acid methionine, from two different sources (IPF Pharmaceuticals, Hannover, Germany and Institute for Biochemistry, Humboldt-University of Berlin, Germany). As control peptide we used the peptide L-14 […] to have any interactions with FPRL1 from the same source (Humboldt-University). Human serum (10%, donor with ABO blood group O) was applied under the same conditions to analyze any impact on induction of proliferation by LL-37. For inhibition experiments we applied inhibitors of G-protein coupled receptors (pertussis toxin, 10 ng/ml), PI-3K (wortmannin), and PKC (GF 109203X). For Matrigel assays HUVECs were seeded on Matrigel support (Beckton Dickinson, Franklin Lakes, N.J.) and cultivated in serum free medium in the absence or presence of 0.5 μg/ml LL-37. After 18 h, the cultures were inspected for the formation of rings and cords. Experiments were repeated three times.
We measured the ability of LL-37/hCAP-18 to accelerate proliferation of HUVECs in a proliferation assay. […] HUVECs were seeded on six well plastic dishes and cultivated in serum free medium. Different concentrations of LL-37/hCAP-18 and control peptides were added to the culture medium. Figures on the left hand side indicate the numbers of cells per μl of volume after 72 h. VEGF was used as positive control. In vitro proliferation was not inhibited by human serum. A significance level of P<0.05 is labeled with **.b. […] HUVECs were seeded on Matrigel support and cultivated in serum free medium in the absence (c) or presence (d) of 0.5 μg/ml LL-37/hCAP-18. After 18 h, the cultures were inspected for the formation of rings and cords. Representative figures are shown.

HUVECs [2] = assay: In vitro Matrigel assay (formation of rings and cords); type: cell-based, human; settings: HUVECs on Matrigel, serum free medium, 0.5 μg/ml, 18 h
Procedure: Endothelial cells from human umbilical veins (HUVEC) were isolated as described before^8. 10^4 cells were seeded on six well plastic dishes in serum free medium. Different concentrations of LL-37 were added to the culture medium. VEGF (5 ng/ml, 165 amino acid variant, Sigma Chemicals, Munich, Germany) was used as positive control. After 72 h the cells were detached from the support and counted. Experiments were repeated ten times using synthetic LL-37/hCAP-18 (37 C-terminal amino acids) and the hexapeptide WKYMVm, wherein “m” denotes the D-form of the amino acid methionine, from two different sources (IPF Pharmaceuticals, Hannover, Germany and Institute for Biochemistry, Humboldt-University of Berlin, Germany). As control peptide we used the peptide L-14 […] to have any interactions with FPRL1 from the same source (Humboldt-University). Human serum (10%, donor with ABO blood group O) was applied under the same conditions to analyze any impact on induction of proliferation by LL-37. For inhibition experiments we applied inhibitors of G-protein coupled receptors (pertussis toxin, 10 ng/ml), PI-3K (wortmannin), and PKC (GF 109203X). […]
We measured the ability of LL-37/hCAP-18 to accelerate proliferation of HUVECs in a proliferation assay. […]

ischemic hindlimb = assay: Rabbit hind limb model of arteriogenesis and angiogenesis; type: in vivo; settings: 200 μg intramuscular 7 days after femoral artery excision, vs PBS control, day 35
Procedure: To analyze angiogenic effects of LL-37 in vivo we used a rabbit model of angiogenesis. German Giant Rabbits (6.5±0.4 kg, n=8) were subjected to ligation of the external iliac artery (proximally), the popliteal and saphenous arteries (distally) and all femoral artery branches, followed by excision of the entire femoral artery. Seven days after surgery, synthetic LL-37 (200 μg in 1 ml PBS) or PBS alone as control were injected into the muscles of the medial thigh and the calf (5 injections sites, n=4/group). Seven (baseline) and thirty-five days after surgery, angiography was performed by automated injection of contrast agent into the abdominal aorta (4 ml at 2 ml/sec; cine-angiography 25 frames/sec; Siemens, Munich, Germany). Collateral growth was defined as the increase in angiographic collateral score between baseline and 35 days after initial surgery (assessed by counting the contrast-opacified collateral vessels in the medial thigh using a grid overlay)^12. Blood flow was assessed by cine-frame-count of the passage time of contrast agent between the common iliac artery and the anterior tibial artery (proximal and distal landmarks), adapting the TIMI frame-count method to peripheral blood flow^13. Blood flow measurements correlate well with results obtained with doppler flow-wire in the internal iliac artery (Jomed, Haan, Germany). Tissue specimens were sampled from the right gastrocnemius and fibularis muscles for histology (alkaline phosphatase staining using an indoxyl-tetrazolium method), capillary density was assessed as the ratio of capillaries to muscle fibers (4 fields, 200× magnitude).
To assess the effect of LL-37/hCAP-18 on both angiogenesis and the induction of collateral circulation under pathological conditions, we applied the substance in a rabbit hind limb model. In this model angiogenesis and collateral vessel growth (arteriogenesis) are induced by excision of the femoral artery. Seven days after surgical excision of the femoral artery, baseline measurements were performed and LL-37/hCAP-18 or buffer as control were injected into the ischemic hindlimb.

HUVECs [3] = assay: Inhibition of the LL-37/hCAP-18-induced proliferative response of endothelial cells; type: cell-based, human; settings: for effect of the inhibitor on LL-37/hCAP-18-induced endothelial proliferation: HUVECs preincubated with the inhibitor (pertussis toxin 10 ng/ml); for effect of the inhibitor on baseline cell proliferation: HUVECs, without LL-37/hCAP-18
Procedure: as §1
As a next step we analyzed which mechanisms might be involved in the angiogenic activity of LL-37/hCAP-18. We applied inhibitors of G-protein coupled receptors (pertussis toxin), PI-3K (wortmannin), and PKC (GF 109203X) and monitored cell proliferation as outcome parameter.

[4] = serum free medium, cell count after 72 h

| Molecule | endothelial proliferation (HUVECs [1]; [4]) | effect of the inhibitor on LL-37/hCAP-18-induced endothelial proliferation (HUVECs [3]) | effect of the inhibitor on baseline cell proliferation (HUVECs [3]) | also measured |
| --- | --- | --- | --- | --- |
| WKYMVm (WKYMV[dM]) [synthetic hexapeptide, "m" denotes the D-form of methionine; specific agonist for FPRL1, reference compound] | stimulated proliferation of endothelial cells |  |  |  |
| LLGDFFRKSKEKIGKEFKRIVQRIKDFLRNLVPRTES [LL-37/hCAP-18, human cathelicidin antimicrobial peptide, the 37 C-terminal amino acid residues; synthetic peptide used in the tests] | dose-dependent increase of endothelial proliferation |  |  | proliferative activity in the presence of human serum (HUVECs [1]; 10% human serum, 72 h): not inhibited; also recorded: not blocked; minimal concentration necessary to induce significant increase of proliferation (HUVECs [1]; [4]): 50 ng/mL; formation of rings and cords of cells (HUVECs [2]): significantly induces the formation of visible rings and cords of cells; blood flow (cine-frame-count of contrast agent passage time) (ischemic hindlimb): significantly increased; also recorded: significantly augmented; capillary density (capillaries to muscle fibers, calf muscles) (ischemic hindlimb): higher capillary density; collateral growth (increase in angiographic collateral score, medial thigh) (ischemic hindlimb): significantly increased collateral growth; also recorded: significant increase |
| pertussis toxin |  | inhibition of the proliferative response; also recorded: inhibited activities of LL-37/hCAP-18 on endothelial proliferation | no effect on the baseline measurements |  |
| CN(C)CCCn1cc(C2=C(c3c[nH]c4ccccc34)C(=O)NC2=O)c2ccccc21 [GF 109203X] |  | inhibition of the proliferative response; also recorded: inhibited activities of LL-37/hCAP-18 on endothelial proliferation | no effect on the baseline measurements |  |
